Where two headings read alike, the source gives them in different places.
Key:
[1] = test system: FM3A/0 murine mammary carcinoma cells; assay: Cytotoxic effect on FM3A/0 cells; format: cell-based; design: unit not given beside the values; settings: Tables 5 and 7, FM3A/0 cells
human CEM cells = assay: Cytotoxicity (MTT) on CEM cells; format: cell-based; settings: Homo sapiens, CCRF-CEM, Tables 4 and 6, CEM cells; some values 'then plateau'
Procedure: The cytotoxic effect of a compound is studied on human CEM cells and MCF-7 mammary carcinoma cells that are or are not resistant to gemcitabine, which is an anticancer nucleoside used in chemotherapy.
The cytotoxicity (CC50) was estimated by measuring the reduction of 3-(4,5-dimethylthiazol-2-yl)-2,5-diphenyltetrazolium bromide (MTT), which is converted into insoluble violet formazan. To do this, 100 000 cells (human CEM-SS or MCF-7 lines) are inoculated per well in 100 μl of culture medium, in 96-well microtitration plates. After 24 hours, the test products are added in 100 μl and incubation is continued for 48 to 72 hours. MIT is then added in a proportion of 20 μl of a solution at 5 mg/ml in PBS. Three hours later, 100 μl of a DMF/acetic acid/HCl/SDS (sodium dodecyl sulfate) solution are added. After 3 hours at 37° C., the absorbance of the formazan is measured at 590 nm and compared with that of the untreated control.

[2] = test system: L1210/0 murine leukemia cells; assay: Cytotoxic effect on L1210/0 cells; format: cell-based; settings: Tables 5 and 7, L1210/0 cells
human Molt4/C8 cells = assay: Cytotoxic effect on Molt4/C8 cells; format: cell-based; settings: Tables 5 and 7, Molt4/C8 cells
human CEM T4 lymphocytes = assay: Cytotoxic effect on CEM T4 lymphocytes; format: cell-based; design: unit not given beside the values; settings: Tables 5 and 7, CEM cells
CEM cells = assay: Cytotoxic concentration in CEM cells (antiviral tests); format: cell-based, human; settings: First and Second Series, second table; viability of CEM cells
Procedure: (§1) The toxicity and the antiviral activities were measured at different concentrations, and their evolution as a function of the concentration makes it possible to evaluate: • the concentration at which 50% of the cells are dead in the absence of virus (CC 50) for each of the test compounds, from the change in absorbance at 540 nm of formazan as a function of the concentration of test compound, • the concentration of compound that leads to a 50% reduction in the activity of viral reverse transcriptase (EC 50). This concentration is determined from the curve representing the change in the percentage of “remaining reverse transcriptase” activity (defined as being the ratio of the activity of the reverse transcriptase in the presence of the test compound to that of the untreated cells) as a function of the concentration of test compound.
CC50: cytotoxic concentration or concentration required to reduce the viability of the CEM cells by 50%.

HIV-1 = assay: Anti-HIV-1 effect in CEM cells; format: cell-based; settings: Human immunodeficiency virus 1, CCRF-CEM, read-out: EC50 HIV-1
Procedure: (§2) The evaluation test is described in Roy, B.; Chambert, S.; Lepoivre M.; Aubertin, A.-M.; Balzarini, J.; Décout, J.-L., Deoxyribonucleoside 2′- or 3′-mixed disulfides: prodrugs to target ribonucleotide reductase and/or to inhibit HIV reverse transcription. J. Med. Chem. 2003, 46, 2565-2568.
as §1
(§3) EC50: concentration required to afford 50% protection to the CEM cells against the cytopathogenicity of HIV;

HIV-2 [3] = assay: Anti-HIV-2 effect in CEM cells; format: cell-based; settings: Human immunodeficiency virus 2, CCRF-CEM, CEM cells, read-out: EC50 HIV-2
Procedure: as §2, §1, §3

HIV-2 [4] = assay: Anti-HIV-2 effect in CEM/TK− cells; format: cell-based; settings: Human immunodeficiency virus 2, CEM-TK(-); Third Series; CEM cells having no thymidine kinase activity
Procedure: as §2, §1, §3
• Effect in CEM not expressing thymidine kinase activity (CEM/TK^−, cells having no thymidine kinase activity).

HeLa cells = assay: Cytotoxic effect on HeLa cells; format: cell-based; design: unit not given beside the values; settings: Tables 5 and 7, HeLa cells
[5] = First and Second Series, second table

Cc1cn([C@H]2C[C@H](SSC(Cl)(Cl)Cl)[C@@H](CO)O2)c(=O)[nH]c1=O [Compound 22, 3′-deoxythymidin-3′-yl trichloromethyl disulfide]
cytotoxic effect, FM3A/0 [1]: 244 ± 49 | EC50 (human CEM cells): 21 µM | cytotoxic effect, L1210/0 [2]: 45 ± 1 | cytotoxic effect, Molt4/C8 (human Molt4/C8 cells): 55 ± 19 | cytotoxic effect, CEM (human CEM T4 lymphocytes): 121 ± 18 | CC50 (CEM cells): 103 ± 4 µM | EC50 (HIV-1; [5]): 25 µM | EC50 (HIV-1; Third Series): 20 µM | EC50 (HIV-2 [3]; [5]): 17.5 ± 3.5 µM | EC50 (HIV-2 [3]; Third Series): 27.5 ± 3.5 µM | EC50 (HIV-2 [4]): 22.5 ± 3.5 µM | cytotoxic effect, HeLa (HeLa cells): 39 ± 10

Reference: patent US20100075917A1, “THIONUCLEOSIDES AND PHARMACEUTICAL APPLICATIONS” (priority 2006, published 2010)
